≈ marks a conversion by molar mass, not a printed value. Values belong to the compound of their own block, whether it stands above or below them. Calls of active or inactive are those of the source. The rule behind the calls is not given here.
Assays:
[1] = target: T1, Histone-lysine N-methyltransferase SUV39H1 (Homo sapiens, UniProt O43463); experiment: Displacement of 3H-SAM from SUV39H1 (unknown origin) using biotinylated-histone H3 peptide as substrate incubated for 45 mins by SPA assay
T1 sequence (O43463 whole entry): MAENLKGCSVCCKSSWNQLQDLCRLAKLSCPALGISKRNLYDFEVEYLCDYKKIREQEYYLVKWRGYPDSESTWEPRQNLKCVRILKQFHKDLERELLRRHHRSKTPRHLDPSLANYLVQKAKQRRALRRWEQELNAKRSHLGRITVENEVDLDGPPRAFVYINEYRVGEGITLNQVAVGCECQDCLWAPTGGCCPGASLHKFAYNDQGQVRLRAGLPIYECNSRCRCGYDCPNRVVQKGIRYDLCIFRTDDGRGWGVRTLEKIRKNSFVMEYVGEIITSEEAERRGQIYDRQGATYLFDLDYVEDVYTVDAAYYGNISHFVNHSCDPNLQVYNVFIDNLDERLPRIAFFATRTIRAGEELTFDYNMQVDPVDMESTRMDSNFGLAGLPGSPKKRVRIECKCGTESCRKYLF

[2] = target: T2, Protein arginine N-methyltransferase 1 (Homo sapiens, UniProt Q99873); experiment: Displacement of 3H-SAM from PRMT1 (unknown origin) using biotinylated-histone H4 peptide as substrate at 30 uM incubated for 45 mins by SPA assay relative to control
Target sequence in this assay (Q99873 whole entry, looked up): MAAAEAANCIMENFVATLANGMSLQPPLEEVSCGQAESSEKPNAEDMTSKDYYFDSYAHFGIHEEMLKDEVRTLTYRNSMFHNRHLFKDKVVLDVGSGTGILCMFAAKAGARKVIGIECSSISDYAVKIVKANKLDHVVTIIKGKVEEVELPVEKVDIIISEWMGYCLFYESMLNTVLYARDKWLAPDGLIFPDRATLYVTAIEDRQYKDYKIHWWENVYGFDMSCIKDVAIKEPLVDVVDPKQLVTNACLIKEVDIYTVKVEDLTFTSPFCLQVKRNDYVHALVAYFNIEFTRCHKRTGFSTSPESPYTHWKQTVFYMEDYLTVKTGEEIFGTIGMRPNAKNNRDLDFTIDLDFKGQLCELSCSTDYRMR

[3] = target: T3, Histone-lysine N-methyltransferase SMYD3 (Homo sapiens) (UniProt Q9H7B4); experiment: Displacement of 3H-SAM from SMYD3 (unknown origin) using biotinylated-MAP3K2 as substrate at 30 uM incubated for 45 mins by SPA assay relative to control
T3 sequence (whole entry): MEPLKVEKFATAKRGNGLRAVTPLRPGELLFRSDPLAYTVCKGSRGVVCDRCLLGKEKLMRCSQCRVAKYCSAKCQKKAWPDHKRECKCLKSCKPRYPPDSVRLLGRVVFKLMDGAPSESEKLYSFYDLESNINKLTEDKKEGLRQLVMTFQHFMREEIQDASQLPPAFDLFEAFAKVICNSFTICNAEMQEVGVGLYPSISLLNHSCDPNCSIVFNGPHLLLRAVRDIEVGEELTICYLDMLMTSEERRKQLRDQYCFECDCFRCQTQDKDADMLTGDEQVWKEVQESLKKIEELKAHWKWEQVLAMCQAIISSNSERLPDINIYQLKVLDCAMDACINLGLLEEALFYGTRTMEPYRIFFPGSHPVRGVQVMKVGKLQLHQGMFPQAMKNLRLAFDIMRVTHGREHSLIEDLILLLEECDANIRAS

[4] = target: Histone-lysine N-methyltransferase, H3 lysine-79 specific (Homo sapiens) (UniProt Q8TEK3); experiment: Displacement of 3H-SAM from DOT1L (unknown origin) at 30 uM incubated for 1 hr in presence of substrate by SPA assay relative to control
Chain of Histone-lysine N-methyltransferase, H3 lysine-79 specific (Homo sapiens) (Q8TEK3 whole entry, looked up): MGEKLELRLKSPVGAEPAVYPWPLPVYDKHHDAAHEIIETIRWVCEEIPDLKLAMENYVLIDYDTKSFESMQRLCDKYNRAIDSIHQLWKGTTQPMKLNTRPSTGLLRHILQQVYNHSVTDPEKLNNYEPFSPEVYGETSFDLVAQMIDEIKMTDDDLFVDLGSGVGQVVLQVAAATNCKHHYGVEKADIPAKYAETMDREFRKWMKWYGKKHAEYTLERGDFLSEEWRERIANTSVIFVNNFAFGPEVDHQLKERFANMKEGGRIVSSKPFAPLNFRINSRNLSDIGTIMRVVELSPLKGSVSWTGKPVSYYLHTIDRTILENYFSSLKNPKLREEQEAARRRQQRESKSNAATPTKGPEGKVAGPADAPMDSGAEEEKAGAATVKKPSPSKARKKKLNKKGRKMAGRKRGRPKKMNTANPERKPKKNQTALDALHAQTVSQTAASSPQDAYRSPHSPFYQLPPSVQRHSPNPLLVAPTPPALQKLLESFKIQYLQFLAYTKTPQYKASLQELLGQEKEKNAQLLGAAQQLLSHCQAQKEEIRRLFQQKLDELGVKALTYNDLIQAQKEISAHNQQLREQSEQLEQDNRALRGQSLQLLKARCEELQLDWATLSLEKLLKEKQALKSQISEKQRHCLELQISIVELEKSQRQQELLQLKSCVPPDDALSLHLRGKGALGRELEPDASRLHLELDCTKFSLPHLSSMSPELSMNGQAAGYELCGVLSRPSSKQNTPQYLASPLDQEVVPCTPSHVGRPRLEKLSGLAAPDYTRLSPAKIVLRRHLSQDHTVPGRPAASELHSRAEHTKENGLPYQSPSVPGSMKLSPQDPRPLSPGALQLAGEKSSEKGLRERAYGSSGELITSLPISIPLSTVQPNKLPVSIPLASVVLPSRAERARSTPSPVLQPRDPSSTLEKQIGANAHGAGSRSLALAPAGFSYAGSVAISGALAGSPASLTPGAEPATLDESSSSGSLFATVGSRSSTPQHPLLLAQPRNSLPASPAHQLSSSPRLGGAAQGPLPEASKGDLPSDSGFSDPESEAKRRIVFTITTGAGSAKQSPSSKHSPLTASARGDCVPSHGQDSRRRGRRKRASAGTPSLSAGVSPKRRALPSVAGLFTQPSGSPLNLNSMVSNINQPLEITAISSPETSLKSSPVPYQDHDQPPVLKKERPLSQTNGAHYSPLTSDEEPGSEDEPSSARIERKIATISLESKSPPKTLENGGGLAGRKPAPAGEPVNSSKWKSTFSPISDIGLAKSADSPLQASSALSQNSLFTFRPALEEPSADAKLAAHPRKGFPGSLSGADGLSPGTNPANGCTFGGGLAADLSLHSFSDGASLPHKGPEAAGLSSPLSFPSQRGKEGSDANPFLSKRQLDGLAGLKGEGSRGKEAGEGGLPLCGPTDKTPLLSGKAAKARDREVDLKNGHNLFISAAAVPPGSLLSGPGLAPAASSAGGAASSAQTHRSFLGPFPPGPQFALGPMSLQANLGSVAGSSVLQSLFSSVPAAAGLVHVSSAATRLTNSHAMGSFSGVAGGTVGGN

[5] = Lipophilicity, log D of compound in 1-octanol at pH 7.4 incubated for 4 hrs by HPLC-UV analysis; type: physicochemical; conditions: 1-octanol/aqueous phase
[6] = target: T4, Histone-lysine N-methyltransferase SMYD3 (Homo sapiens, UniProt Q9H7B4); experiment: Displacement of 3H-SAM from SMYD3 (unknown origin) using biotinylated-MAP3K2 as substrate incubated for 45 mins by SPA assay
T4 sequence (Q9H7B4 whole entry): T3 sequence (whole entry)

[7] = target: T2, Protein arginine N-methyltransferase 1; experiment: Displacement of 3H-SAM from PRMT1 (unknown origin) using biotinylated-histone H4 peptide as substrate incubated for 45 mins by SPA assay
Target sequence in this assay (Q99873 whole entry): as the sequence (Q99873 whole entry, looked up) above

[8] = target: T2, Protein arginine N-methyltransferase 1; experiment: Displacement of 3H-SAM from PRMT1 (unknown origin) using biotinylated-histone H4 peptide as substrate upto 200 uM incubated for 45 mins by SPA assay
Target sequence in this assay (Q99873 whole entry, looked up): as above

[9] = target: T5, Histone-lysine N-methyltransferase SUV39H1 (Homo sapiens) (UniProt O43463); experiment: Displacement of 3H-SAM from SUV39H1 (unknown origin) using biotinylated-histone H3 peptide as substrate upto 200 uM incubated for 45 mins by SPA assay
T5 sequence (whole entry): T1 sequence (O43463 whole entry)

[10] = target: T3, Histone-lysine N-methyltransferase SMYD3 (Homo sapiens); experiment: Displacement of 3H-SAM from SMYD3 (unknown origin) using biotinylated-MAP3K2 as substrate upto 200 uM incubated for 45 mins by SPA assay
[11] = target: T5, Histone-lysine N-methyltransferase SUV39H1 (Homo sapiens); experiment: Displacement of 3H-SAM from SUV39H1 (unknown origin) using biotinylated-histone H3 peptide as substrate at 10 uM incubated for 45 mins by SPA assay relative to control
[12] = target: T3, Histone-lysine N-methyltransferase SMYD3 (Homo sapiens); experiment: Displacement of 3H-SAM from SMYD3 (unknown origin) using biotinylated-MAP3K2 as substrate at 10 uM incubated for 45 mins by SPA assay relative to control
[13] = target: T2, Protein arginine N-methyltransferase 1; experiment: Inhibition of PRMT1 (unknown origin)
Target sequence in this assay (Q99873 whole entry): as the sequence (Q99873 whole entry, looked up) above

[14] = target: T6, Protein arginine N-methyltransferase 8 (Homo sapiens, UniProt Q9NR22); experiment: Inhibition of PRMT8 (unknown origin)
T6 sequence (Q9NR22 whole entry): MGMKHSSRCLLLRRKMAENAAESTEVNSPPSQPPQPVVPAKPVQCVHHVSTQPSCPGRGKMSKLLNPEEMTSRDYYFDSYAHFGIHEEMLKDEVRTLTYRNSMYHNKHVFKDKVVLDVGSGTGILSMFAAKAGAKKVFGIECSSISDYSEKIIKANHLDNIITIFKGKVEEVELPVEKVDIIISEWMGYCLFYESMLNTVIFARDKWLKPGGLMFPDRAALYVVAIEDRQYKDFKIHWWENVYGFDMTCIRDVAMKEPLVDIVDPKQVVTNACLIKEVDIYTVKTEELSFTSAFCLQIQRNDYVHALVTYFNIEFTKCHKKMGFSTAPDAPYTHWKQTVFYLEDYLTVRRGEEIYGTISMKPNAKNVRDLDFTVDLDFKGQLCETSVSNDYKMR

[15] = target: Protein arginine N-methyltransferase 6 (Homo sapiens, UniProt Q96LA8); experiment: Inhibition of PRMT6 (unknown origin)
Chain of Protein arginine N-methyltransferase 6 (Q96LA8 whole entry): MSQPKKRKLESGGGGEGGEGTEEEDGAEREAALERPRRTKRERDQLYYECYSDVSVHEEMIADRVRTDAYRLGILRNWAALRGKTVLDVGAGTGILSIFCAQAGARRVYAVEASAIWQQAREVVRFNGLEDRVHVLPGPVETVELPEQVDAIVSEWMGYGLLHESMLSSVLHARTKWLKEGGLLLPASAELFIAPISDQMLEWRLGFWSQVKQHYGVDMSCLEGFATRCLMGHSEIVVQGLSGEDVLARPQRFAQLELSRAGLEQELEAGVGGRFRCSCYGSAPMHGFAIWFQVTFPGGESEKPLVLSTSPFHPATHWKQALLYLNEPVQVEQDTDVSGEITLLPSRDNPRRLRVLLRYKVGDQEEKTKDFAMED

[16] = Aqueous solubility of compound at pH 7.4 incubated for 24 hrs by HPLC-UV spectroscopy; type: physicochemical; conditions: aqueous medium
[17] = target: T7, Histone-arginine methyltransferase CARM1 (Homo sapiens, UniProt Q86X55); experiment: Inhibition of PRMT4 (unknown origin)
T7 sequence (Q86X55 whole entry): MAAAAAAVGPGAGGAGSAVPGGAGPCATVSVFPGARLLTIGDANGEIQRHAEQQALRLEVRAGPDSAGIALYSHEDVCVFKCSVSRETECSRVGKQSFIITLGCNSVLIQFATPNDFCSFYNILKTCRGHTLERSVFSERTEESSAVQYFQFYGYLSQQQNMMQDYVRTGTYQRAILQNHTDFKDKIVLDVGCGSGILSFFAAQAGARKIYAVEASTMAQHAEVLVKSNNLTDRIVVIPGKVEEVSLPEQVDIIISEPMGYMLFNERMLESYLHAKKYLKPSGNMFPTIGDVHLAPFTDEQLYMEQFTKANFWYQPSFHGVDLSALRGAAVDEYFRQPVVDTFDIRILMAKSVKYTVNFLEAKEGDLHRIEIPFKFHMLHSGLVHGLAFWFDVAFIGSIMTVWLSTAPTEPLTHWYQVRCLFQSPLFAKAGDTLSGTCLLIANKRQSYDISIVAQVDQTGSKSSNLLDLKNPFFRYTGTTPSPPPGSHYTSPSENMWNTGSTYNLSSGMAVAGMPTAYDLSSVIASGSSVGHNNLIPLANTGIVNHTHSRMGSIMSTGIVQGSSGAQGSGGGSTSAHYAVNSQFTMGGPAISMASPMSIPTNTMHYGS

[18] = target: T5, Histone-lysine N-methyltransferase SUV39H1 (Homo sapiens); experiment: Displacement of 3H-SAM from SUV39H1 (unknown origin) using biotinylated-histone H3 peptide as substrate at 30 uM incubated for 45 mins by SPA assay relative to control
[19] = target: T6, Protein arginine N-methyltransferase 8; experiment: Displacement of 3H-SAM from human PRMT8 in presence of substrate by SPA assay
[20] = target: T7, Histone-arginine methyltransferase CARM1; experiment: Displacement of 3H-SAM from human PRMT4 in presence of substrate by SPA assay

IC50 [1]: 14 µM
inhibition [2]: < 25%
inhibition [3]: < 25%
inhibition [4]: 9%
SMILES: NCc1ccc(Nc2ncnc3cc(C(=O)NCCN4CCCC4)ccc23)cc1

logD at 4 h [5]: -0.28
SMILES: COCCc1ccc(OCC(O)CNC(C)C)cc1 (configuration not stated) [METOPROLOL]

IC50 [6]: > 100 µM
IC50 [1]: > 200 µM
IC50 [7]: > 200 µM
SMILES: NCc1ccc(Nc2ncnc3cc(C(=O)NC4CCNCC4)ccc23)cc1

inhibition [8]: inactive
inhibition [9]: inactive
inhibition [10]: inactive
SMILES: NC1CCN(c2ncnc3cc(C(=O)NC4CCCC4)ccc23)CC1

IC50 [6]: 60 µM
IC50 [1]: 16 µM
SMILES: NC1CCN(c2ncnc3cc(C(=O)NC4CCNC4)ccc23)CC1 (configuration not stated)

IC50 [6]: > 200 µM
IC50 [1]: > 200 µM
IC50 [7]: > 100 µM
SMILES: NC1CCN(c2ncnc3cc(C(=O)NCCN4CCNCC4)ccc23)CC1

inhibition [8]: inactive
inhibition [11]: < 25%
inhibition [12]: < 25%
SMILES: CN1CCC(NC(=O)c2ccc3c(Nc4ccc(CN)cc4)ncnc3c2)C1 (configuration not stated)

IC50 [13]: 0.119 µM
IC50 [14]: 0.223 µM
IC50 [15]: 0.01 µM
SMILES: CNCCNCc1c[nH]nc1-c1ccc(O[C@H]2C[C@H](OCCC3CCCCC3)C2)cc1

IC50 [1]: 22 µM
inhibition [2]: < 25%
inhibition [3]: < 25%
inhibition [4]: 5%
SMILES: CN(C)CCNC(=O)c1ccc2c(Nc3ccc(CN)cc3)ncnc2c1

IC50 [1]: 16 µM
inhibition [3]: < 25%
inhibition [4]: 10%
SMILES: CN(C)CCN1CCC(NC(=O)c2ccc3c(Nc4ccc(CN)cc4)ncnc3c2)C1 (configuration not stated)

IC50 [1]: 23 µM
inhibition [3]: < 25%
inhibition [4]: 15%
SMILES: CNCCNC(=O)c1ccc2c(Nc3ccc(CN)cc3)ncnc2c1

SMILES: CCCSc1ccc2nc(NC(=O)OC)[nH]c2c1 [ALBENDAZOLE]
solubility at 24 h [16]: 2.2 µg/mL (≈ 8.29 µM)

IC50 [6]: 8 µM
IC50 [1]: 7 µM
SMILES: NCc1ccc(NC(=O)c2ccc3c(N4CCC(N)CC4)ncnc3c2)cc1

IC50 [17]: 0.005 µM
SMILES: CNCCNc1cccc(-n2nc(C(F)(F)F)cc2C(=O)NCc2ccccc2OC)c1

IC50 [6]: > 200 µM
IC50 [1]: > 100 µM
IC50 [7]: > 100 µM
SMILES: NCc1ccc(Nc2ncnc3cc(C(=O)N4CCC(N)C4)ccc23)cc1 (configuration not stated)

IC50 [6]: 63 µM
IC50 [1]: 47 µM
SMILES: NCc1ccc(Nc2ncnc3cc(C(=O)NC4CCNC4)ccc23)cc1 (configuration not stated)

IC50 [6]: 74 µM
IC50 [1]: 35 µM
SMILES: NCc1ccc(Nc2ncnc3cc(C(=O)NCCN4CCNCC4)ccc23)cc1

inhibition [18]: < 25%
inhibition [2]: < 25%
inhibition [3]: < 25%
inhibition [4]: 17%
SMILES: CN1CCN(CCNC(=O)c2ccc3c(Nc4ccc(CN)cc4)ncnc3c2)CC1

inhibition [11]: < 25%
IC50 [7]: 2 µM
inhibition [12]: < 25%
SMILES: CNCCN1CCC(NC(=O)c2ccc3c(Nc4ccc(CNC)cc4)ncnc3c2)C1 (configuration not stated)

inhibition [11]: < 25%
inhibition [12]: < 25%
SMILES: CNCCCNC(=O)c1ccc2c(Nc3ccc(CN)cc3)ncnc2c1

IC50 [19]: 9 µM
IC50 [20]: 45 µM
SMILES: CC(C)Oc1ccc(-c2c[nH]cc2CN(C)CCN)cc1

IC50 [6]: > 200 µM
IC50 [1]: > 200 µM
IC50 [7]: > 200 µM
SMILES: NC1CCN(c2ncnc3cc(C(=O)NC4CCNCC4)ccc23)CC1
